The numbers were not newly measured in article PMC10812672, “Short Antimicrobial Peptide Derived from the Venom Gland Transcriptome of Pamphobeteus verdolaga Increases Gentamicin Susceptibility of Multidrug-Resistant Klebsiella pneumoniae” (Antibiotics, 2023), which cites them from elsewhere.

One data set relates to E. coli. The note with it: custom database compiled from public databases and PubMed; averaged where multiple reports; cited from earlier work. From the text: (§1) Agelaia-CP Agelaia pallipes […] […] 13 1 4.00 1.25 s IsCT [EK7. GP8. Opisthacanthus SK11] madagascariensi […] 13 4 2.00 1.17 s Opisthacanthus IsCT [EK7] madagascariensi […] 13 3 2.00 1.00 s Opisthacanthus IsCT [WL6. SK11 ] madagascariensi ILGKILKGIKKLF 13 4 2.00 2.00 s Opisthacanth ... || (+ 2 further places)

The test system of another data set is S. aureus. The following applies: custom database compiled from public databases and PubMed; averaged where multiple reports; cited from earlier work.
Excerpt: as §1

For “RRWCFRVCYRGFCYRKCR [Polyphemusin-1, cDB AMP; Limulus polyphemus]”, in the data set with E. coli, the “MIC E. coli” value is 0.9 µM. Moreover, the “MIC S. aureus” value in the data set with S. aureus is reported as 0.3 µM.

With “QCRRLCYKQRCVTYCRGR [Gomesin c(1-18)[Gln1], cDB AMP; Acanthoscurria gomesiana]”, the “MIC E. coli” value with E. coli is given as 0.48 µM. Also, the “MIC S. aureus” value in the data set on S. aureus is 1.44 µM.

“FLFKLIPKAIKGLIKAFK [AcrAP1a [S4K.H8K.S11K.S15K]] [cDB AMP; Androctonus crassicauda]”: the “MIC E. coli” value with E. coli was 8.00 µM. In the data set with S. aureus, the “MIC S. aureus” value is 4.00 µM.

On to “ILGKIWKIKKLF [IsCT precursor, cDB AMP; Opisthacanthus madagascariensis]”, for which, in the data set on E. coli, the “MIC E. coli” value is recorded as 2.00 µM. The “MIC S. aureus” value in the data set with S. aureus is listed as 2.00 µM.

“FWGALAKGALKLIGSLFSSFSKKD [Pandinin-2 [P14G], cDB AMP; Pandinus imperator]”: the “MIC E. coli” value in the data set with E. coli is on record as 12.50 µM. The “MIC S. aureus” value with S. aureus is 12.50 µM.

As for “PFKLSLHL [Jellein-1, cDB AMP; Apis mellifera]”, the “MIC E. coli” value in the data set with E. coli is 2.62 µM. Moreover, in the data set on S. aureus, the “MIC S. aureus” value was 10.48 µM.

As for “LNWGKILKHIIK [PNG-1/6, cDB AMP; Panurgus calcaratus]”, the “MIC E. coli” value in the data set on E. coli is given as 4.00 µM. In the data set with S. aureus, the “MIC S. aureus” value is 8.70 µM.

Regarding “FLFKLIPKVIKGLVKAIRK [AaeAP1 [S4.8.15K; A11K. N19K], cDB AMP; Androctonus aeneas]”, the “MIC E. coli” value in the data set with E. coli is on record as 10.85 µM. Moreover, the “MIC S. aureus” value in the data set on S. aureus is listed as 8.14 µM.

As for “VNWKKVLGKIIKVAK [Lasioglossin LL-I, cDB AMP; Lasioglossum laticeps]”, the “MIC E. coli” value in the data set with E. coli is 1.70 µM. In the data set with S. aureus, the “MIC S. aureus” value is 14.3 µM.

Regarding “LNWGAILKHIIK [PNG-1, cDB AMP; Panurgus calcaratus]”, in the data set with E. coli, the “MIC E. coli” value is given as 3.70 µM. The “MIC S. aureus” value in the data set on S. aureus was 10.60 µM.

Turning to “CRRLCYKQRCVTYCRGR [Gomesin, cDB AMP; Acanthoscurria gomesiana]”, the “MIC E. coli” value in the data set on E. coli was 0.80 µM. In addition, the “MIC S. aureus” value in the data set with S. aureus is given as 12.10 µM.

“LKWGAILKHIIK [PNG-1/3, cDB AMP; Panurgus calcaratus]”: the “MIC E. coli” value with E. coli was 3.70 µM. Besides, the “MIC S. aureus” value in the data set on S. aureus was 11.70 µM.

With “ILKKIWKPIKKLF [IsCT-P, cDB AMP; Opisthacanthus madagascariensis]”, the “MIC E. coli” value with E. coli is recorded as 2.00 µM. Besides, the “MIC S. aureus” value in the data set on S. aureus was 1.00 µM.

Regarding “GMWSKILGHLIR [HAL-1, cDB AMP; Halictus sexcinctus]”, the “MIC E. coli” value with E. coli is reported as 3.80 µM. Further, the “MIC S. aureus” value in the data set on S. aureus is recorded as 7.70 µM.

As for “LNWGALLKHLLK [PNG-1/19, cDB AMP; Panurgus calcaratus]”, the “MIC E. coli” value in the data set with E. coli is reported as 3.80 µM. Further, the “MIC S. aureus” value in the data set on S. aureus is reported as 6.70 µM.

For “FLFKLIPKAIKGLIKAFK [AcrAP1a, cDB AMP; Androctonus crassicauda]”, in the data set with E. coli, the “MIC E. coli” value is given as 4 µM. Besides, the “MIC S. aureus” value in the data set with S. aureus is on record as 8 µM.

In the case of “LNWKAILKHIIK [PNG-1/5, cDB AMP; Panurgus calcaratus]”, the “MIC E. coli” value in the data set on E. coli was 2.30 µM. Moreover, in the data set with S. aureus, the “MIC S. aureus” value is recorded as 5.30 µM.

With “VNWKKILGKIIKVAK [Lasioglossin LL-II, cDB AMP; Lasioglossum laticeps]”, the “MIC E. coli” value in the data set on E. coli is 1.40 µM. Further, the “MIC S. aureus” value in the data set on S. aureus is reported as 9.00 µM.

As for “GLHKVMREVLGYERNSYKKFFLR [Ixosin, cDB AMP; Ixodes sinensis]”, the “MIC E. coli” value in the data set with E. coli is on record as 10.45 µM. The “MIC S. aureus” value in the data set with S. aureus is given as 1.29 µM.

Regarding “FLFSLIPSAISGLISAFKGRR [Marmelittin, cDB AMP; Mesobuthus martensii]”, in the data set with E. coli, the “MIC E. coli” value is 6.21 µM. For the same sequence, in the data set with S. aureus, the “MIC S. aureus” value was 6.48 µM.

“ACHAHCQSVGRRGGYCGNFRMTCYCY [Midgut defensin G2, cDB AMP; Haemaphysalis longicornis]”: the “MIC E. coli” value with E. coli is 5.94 µM. The “MIC S. aureus” value in the data set on S. aureus is on record as 5.09 µM.

“LNWGAILKKIIK [PNG-1/9, cDB AMP; Panurgus calcaratus]”: the “MIC E. coli” value in the data set on E. coli is 4.30 µM. Moreover, the “MIC S. aureus” value in the data set with S. aureus is on record as 7.30 µM.

Turning to “RRWCFRVCYKGFCYRKCR [Polyphemusin-2, cDB AMP; Limulus polyphemus]”, the “MIC E. coli” value with E. coli is 3.87 µM. In the data set with S. aureus, the “MIC S. aureus” value is listed as 5.14 µM.

Consider “VNWKKILGKIIKVVK [Lasioglossin LL-III, cDB AMP; Lasioglossum laticeps]”, for which the “MIC E. coli” value in the data set with E. coli is 1.40 µM. In the data set with S. aureus, the “MIC S. aureus” value is recorded as 3.90 µM.

In the case of “FLFKLIPKAIKGLLKAFK [AcrAP2 [S4K.N8K.S11K.S15K], cDB AMP; Androctonus crassicauda]”, the “MIC E. coli” value in the data set on E. coli is listed as 8.00 µM. Besides, the “MIC S. aureus” value in the data set with S. aureus was 4.00 µM.

For the sequence “FIGAIARLLSKIFGKR [Bmkn2, cDB AMP; Mesobuthus martensii]”, the “MIC E. coli” value in the data set with E. coli is given as 1.50 µM. The “MIC S. aureus” value in the data set on S. aureus is recorded as 0.60 µM.

Regarding “FFGSLLSLGSKLLPSVFKLFQRKKE [Css54, cDB AMP; Centruroides suffusus suffusus]”, the “MIC E. coli” value in the data set with E. coli is 4.35 µM. For the same sequence, in the data set with S. aureus, the “MIC S. aureus” value is listed as 4.35 µM.

Regarding “GFLSILKKVLPKVMAHMK [Melectin, cDB AMP; Melecta albifrons]”, the “MIC E. coli” value with E. coli is 10.37 µM. The “MIC S. aureus” value with S. aureus is given as 12.80 µM.

“SIGRRGGYCAGIIKQTCTCYR [Longicin (53-73), cDB AMP; Haemaphysalis longicornis]”: the “MIC E. coli” value in the data set with E. coli is given as 2.00 µM. Also, in the data set on S. aureus, the “MIC S. aureus” value is 2.00 µM.

With “FLGSLFSIGSKLLPGVIKLFQRKKQ [Im-5, cDB AMP; Isometrus maculatus]”, the “MIC E. coli” value in the data set with E. coli was 10.00 µM. The “MIC S. aureus” value with S. aureus is recorded as 3.75 µM.

With “FLFKLIPKAIKGLVKAIRK [AaeAP2 [S4.8.15K; A11K. N19K], cDB AMP; Androctonus aeneas]”, the “MIC E. coli” value in the data set on E. coli is 10.99 µM. The “MIC S. aureus” value in the data set on S. aureus is reported as 8.24 µM.

Turning to “ACQFWSCNSSCISRGYRQGYCWGIQYKYCQCQ [Defensin-1, cDB AMP; Centruroides limpidus limpidus]”, the “MIC E. coli” value in the data set with E. coli is 13.08 µM. In the data set with S. aureus, the “MIC S. aureus” value is given as 13.08 µM.

As to “INLKAIAALAKKLLG [Mastoparan-like peptide 12c, cDB AMP; Vespa magnifica]”, the “MIC E. coli” value in the data set with E. coli is listed as 3.90 µM. The “MIC S. aureus” value in the data set on S. aureus was 1.95 µM.

As to “GLLSKFGRLARKLARVIPKV [Pilosulin-2, cDB AMP; Myrmecia pilosula]”, in the data set on E. coli, the “MIC E. coli” value is listed as 1.33 µM. The “MIC S. aureus” value in the data set with S. aureus is 4.00 µM.

“GMASLLAKVLPHVVKLIK [Codesane, cDB AMP; Colletes daviesanus]”: the “MIC E. coli” value in the data set on E. coli is 3.70 µM. For the same sequence, the “MIC S. aureus” value in the data set on S. aureus was 3.70 µM.

Take “GFGMALKLLKKVL [Macropin 1, cDB AMP; Macropis fulvipes]”: the “MIC E. coli” value with E. coli is listed as 3.00 µM. Besides, in the data set on S. aureus, the “MIC S. aureus” value is given as 3.70 µM.

In the case of “VWLSALKFIGKHLAKHQLSKL [Lycosin-II, cDB AMP; Lycosa singoriensis]”, the “MIC E. coli” value in the data set with E. coli is reported as 12.50 µM. The “MIC S. aureus” value in the data set with S. aureus is listed as 3.10 µM.

On to “FLFKLIPKAIKKLISKFK [AamAP1 [S4K.H8K.G11.12K.A16K], cDB AMP; Androctonus amoreuxi]”, for which the “MIC E. coli” value in the data set on E. coli is given as 7.50 µM. In the data set on S. aureus, the “MIC S. aureus” value is listed as 5.00 µM.
